Assay results published in patent US8147818B2, “Hepatitis C virus inhibitors” (Bristol-Myers Squibb Company, priority 2008, dated 2012).

Each molecule was assayed on HCV 1b-377-neo replicon cells (assay: HCV Replicon assay, HCV 1b-377-neo replicon cells). Settings: Hepatitis C virus, read-out: EC50 against HCV 1b (Activity or Range).
Format: cell-based, HCV 1b genotype
Experimental: An HCV Replicon assay was utilized in the present disclosure, and was prepared, conducted and validated as described in commonly owned PCT/US2006/022197 and in O'Boyle et. al. Antimicrob Agents Chemother. 2005 April; 49(4):1346-53.
HCV 1b-377-neo replicon cells were used to test the currently described compound series as well as cells resistant to compound A containing a Y2065H mutation in NS5A (described in application PCT/US2006/022197). The compounds tested were determined to have more than 10-fold less inhibitory activity on cells containing the mutation than wild-type cells indicating a related mechanism of action between the two compound series. Thus, the compounds of the present disclosure can be effective to inhibit the function of the HCV NS5A protein and are understood to be as effective in combinations as previously described in application PCT/US2006/022197 and commonly owned WO/O4014852. Further, the compounds of the present disclosure can be effective against the HCV 1b genotype. It should also be understood that the compounds of the present disclosure can inhibit multiple genotypes of HCV. […] In one embodiment compounds of the present disclosure are active against the 1a, 1b, 2a, 2b, 3a, 4a, and 5a genotypes.
`COC(=O)N[C@H](C(=O)N1[C@@H]2C[C@@H]2C[C@H]1c1nc2c([nH]1)CCc1cc(-c3ccc(-c4[nH]c([C@@H]5C[C@H]6C[C@H]6N5C(=O)[C@@H](NC(=O)OC)C(C)C)nc4CC(F)(F)F)cc3)ccc1-2)C(C)C` [Example 22r.3] was tested, and the EC50 was 0.003 nM. In the case of `COC(=O)N[C@H](C(=O)N1CCC[C@H]1c1ncc(-c2ccc(-c3ccc4c(c3)CCc3[nH]c([C@@H]5CCCN5C(=O)[C@@H](NC(=O)OC)[C@@H](C)OC)nc3-4)cc2F)[nH]1)[C@H](C)OC` [Example 22s.c], the EC50 is reported as 0.02 nM. `COC(=O)N[C@H](C(=O)N1CC(F)(F)C[C@H]1c1ncc(-c2ccc(-c3ccc4c(c3)CCc3[nH]c([C@@H]5CCCN5C(=O)[C@@H](NC(=O)OC)C(C)C)nc3-4)cc2)[nH]1)C(C)C` [Example 22t] gave an EC50 of 0.001 nM. Work on `COC(=O)N[C@@H](C(=O)N1CCC[C@H]1c1nc2c(ccc3cc(-c4ccc5c(ccc6nc([C@@H]7CCCN7C(=O)[C@H](NC(=O)OC)c7ccccc7)[nH]c65)c4)ccc32)[nH]1)c1ccccc1` [Example 22u.2b] yielded an EC50 of 0.02 nM. With `CCN(CC)[C@@H](C(=O)N1CCC[C@H]1c1ncc(-c2ccc(-c3ccc4c(ccc5[nH]c([C@@H]6CCCN6C(=O)[C@@H](c6ccccc6)N(CC)CC)nc54)c3)cc2)[nH]1)c1ccccc1` [Example 22u.a] the EC50 was 0.01 nM.

Same assay, conditions: Hepatitis C virus, read-out: EC50 against HCV 1b (Activity or Range), range class
`COC(=O)N[C@H](C(=O)N1CCC[C@H]1c1nc2c([nH]1)CCc1cc(-c3ccc4c(c3)CCc3[nH]c([C@@H]5CCCN5C(=O)[C@@H](NC(=O)OC)C(C)C)nc3-4)ccc1-2)C(C)C` [Example 22r.4] showed an EC50 of 0.001 to 0.1 nM. For `COC(=O)N[C@H](C(=O)N1[C@@H]2C[C@@H]2C[C@H]1c1nc2c([nH]1)CCc1cc(-c3ccc4c(c3)CCc3[nH]c([C@@H]5C[C@H]6C[C@H]6N5C(=O)[C@@H](NC(=O)OC)C(C)C)nc3-4)ccc1-2)C(C)C` [Example 22r.5], the EC50 was 0.001 to 0.1 nM. Molecule `CCN(CC)[C@@H](C(=O)N1CCC[C@H]1c1ncc(-c2ccc(-c3ccc4c(c3)CCc3[nH]c([C@@H]5CCCN5C(=O)[C@@H](c5ccccc5)N(CC)CC)nc3-4)cc2)[nH]1)c1ccccc1` [Example 22r.a] has an EC50 of 0.001 to 0.1 nM. `COC(=O)N[C@H](C(=O)N1CCC[C@H]1c1ncc(-c2ccc(-c3ccc4c(c3)OCc3[nH]c([C@@H]5CCCN5C(=O)[C@@H](NC(=O)OC)C(C)C)nc3-4)cc2)[nH]1)C(C)C` [Example 22r.b] gave an EC50 of 0.001 to 0.1 nM. With `COC(=O)N[C@H](C(=O)N1CCC[C@H]1c1ncc(-c2ccc(-c3ccc4c(c3)CCc3[nH]c([C@@H]5CCCN5C(=O)[C@@H](NC(=O)OC)C(C)C)nc3-4)cc2)[nH]1)C(C)C` [Example 22r] the EC50 was 0.001 to 0.1 nM. Molecule `COC(=O)N[C@H](C(=O)N1[C@@H]2C[C@@H]2C[C@H]1c1ncc(-c2ccc(-c3ccc4c(c3)CCc3[nH]c([C@@H]5C[C@H]6C[C@H]6N5C(=O)[C@@H](NC(=O)OC)C(C)C)nc3-4)cc2F)[nH]1)C(C)C` [Example 22s.1] has an EC50 of 0.001 to 0.1 nM. Work on `CCN(CC)[C@@H](C(=O)N1[C@@H]2C[C@@H]2C[C@H]1c1ncc(-c2ccc(-c3ccc4c(c3)CCc3[nH]c([C@@H]5C[C@H]6C[C@H]6N5C(=O)[C@@H](c5ccccc5)N(CC)CC)nc3-4)cc2F)[nH]1)c1ccccc1` [Example 22s.1a] yielded an EC50 of 0.001 to 0.1 nM. `COC(=O)N[C@@H](C(=O)N1[C@@H]2C[C@@H]2C[C@H]1c1ncc(-c2ccc(-c3ccc4c(c3)CCc3[nH]c([C@@H]5C[C@H]6C[C@H]6N5C(=O)[C@H](NC(=O)OC)c5ccccc5)nc3-4)cc2F)[nH]1)c1ccccc1` [Example 22s.1b] gave an EC50 of 0.001 to 0.1 nM. Work on `CCN(CC)[C@@H](C(=O)N1CCC[C@H]1c1ncc(-c2ccc(-c3ccc4c(c3)CCc3[nH]c([C@@H]5CCCN5C(=O)[C@@H](c5ccccc5)N(CC)CC)nc3-4)cc2F)[nH]1)c1ccccc1` [Example 22s.a] yielded an EC50 of 0.001 to 0.1 nM. With `COC(=O)N[C@H](C(=O)N1CCC[C@H]1c1ncc(-c2ccc(-c3ccc4c(c3)CCc3[nH]c([C@@H]5CCCN5C(=O)[C@@H](NC(=O)OC)C(C)C)nc3-4)cc2F)[nH]1)C(C)C` [Example 22s] the EC50 was 0.001 to 0.1 nM. For `COC(=O)N[C@H](C(=O)N1CCC[C@H]1c1ncc(-c2ccc(-c3ccc4c(c3)CCc3[nH]c([C@@H]5CC(F)(F)CN5C(=O)[C@@H](NC(=O)OC)C(C)C)nc3-4)cc2)[nH]1)C(C)C` [Example 22t.1], the EC50 was 0.001 to 0.1 nM. `CCN(CC)[C@@H](C(=O)N1CCC[C@H]1c1ncc(-c2ccc(-c3ccc4c(c3)CCc3[nH]c([C@@H]5CC(F)(F)CN5C(=O)[C@@H](c5ccccc5)N(CC)CC)nc3-4)cc2)[nH]1)c1ccccc1` [Example 22t.1a] showed an EC50 of 0.001 to 0.1 nM. With `CCN(CC)[C@@H](C(=O)N1CC(F)(F)C[C@H]1c1ncc(-c2ccc(-c3ccc4c(c3)CCc3[nH]c([C@@H]5CCCN5C(=O)[C@@H](c5ccccc5)N(CC)CC)nc3-4)cc2)[nH]1)c1ccccc1` [Example 22t.a] the EC50 was 0.001 to 0.1 nM. Work on `COC(=O)N[C@H](C(=O)N1[C@@H]2C[C@@H]2C[C@H]1c1ncc(-c2ccc(-c3ccc4c(ccc5[nH]c([C@@H]6C[C@H]7C[C@H]7N6C(=O)[C@@H](NC(=O)OC)C(C)C)nc54)c3)cc2)[nH]1)C(C)C` [Example 22u.1] yielded an EC50 of 0.001 to 0.1 nM. Molecule `COC(=O)N[C@H](C(=O)N1CCC[C@H]1c1nc2c(ccc3cc(-c4ccc5c(ccc6nc([C@@H]7CCCN7C(=O)[C@@H](NC(=O)OC)C(C)C)[nH]c65)c4)ccc32)[nH]1)C(C)C` [Example 22u.2] has an EC50 of 0.001 to 0.1 nM. `CCN(CC)[C@@H](C(=O)N1CCC[C@H]1c1nc2c(ccc3cc(-c4ccc5c(ccc6nc([C@@H]7CCCN7C(=O)[C@@H](c7ccccc7)N(CC)CC)[nH]c65)c4)ccc32)[nH]1)c1ccccc1` [Example 22u.2a] showed an EC50 of 0.001 to 0.1 nM. `COC(=O)N[C@H](C(=O)N1[C@@H]2C[C@@H]2C[C@H]1c1nc2c([nH]1)-c1ccc(-c3ccc4c(ccc5[nH]c([C@@H]6C[C@H]7C[C@H]7N6C(=O)[C@@H](NC(=O)OC)C(C)C)nc54)c3)cc1CC2)C(C)C` [Example 22u.4] showed an EC50 of 0.001 to 0.1 nM. With `COC(=O)N[C@H](C(=O)N1[C@@H]2C[C@@H]2C[C@H]1c1nc2c(ccc3cc(-c4ccc5c(ccc6nc([C@@H]7C[C@H]8C[C@H]8N7C(=O)[C@@H](NC(=O)OC)C(C)C)[nH]c65)c4)ccc32)[nH]1)C(C)C` [Example 22u.5] the EC50 was 0.001 to 0.1 nM. Work on `COC(=O)N[C@@H](C(=O)N1[C@@H]2C[C@@H]2C[C@H]1c1nc2c(ccc3cc(-c4ccc5c(ccc6nc([C@@H]7C[C@H]8C[C@H]8N7C(=O)[C@H](NC(=O)OC)c7ccccc7)[nH]c65)c4)ccc32)[nH]1)c1ccccc1` [Example 22u.5a] yielded an EC50 of 0.001 to 0.1 nM. For `COC(=O)N[C@H](C(=O)N1CCC[C@H]1c1ncc(-c2ccc(-c3ccc4c(ccc5[nH]c([C@@H]6CCCN6C(=O)[C@@H](NC(=O)OC)[C@@H](C)OC)nc54)c3)cc2)[nH]1)[C@H](C)OC` [Example 22u.b], the EC50 was 0.001 to 0.1 nM. For `COC(=O)N[C@H](C(=O)N1CCC[C@H]1c1ncc(-c2ccc(-c3ccc4c(ccc5[nH]c([C@@H]6CCCN6C(=O)[C@@H](NC(=O)OC)C(C)C)nc54)c3)cc2)[nH]1)C(C)C` [Example 22u], the EC50 was 0.001 to 0.1 nM. With `COC(=O)N[C@H](C(=O)N1[C@@H]2C[C@@H]2C[C@H]1c1ncc(-c2ccc(-c3ccc4c(ccc5[nH]c([C@@H]6C[C@H]7C[C@H]7N6C(=O)[C@@H](NC(=O)OC)C(C)C)nc54)c3)cc2F)[nH]1)C(C)C` [Example 22v.1] the EC50 was 0.001 to 0.1 nM.
